Test results: US20260265235A1, “BICYCLOAMINE CARBOXAMIDE DERIVATIVE” (Sumitomo Pharma Co., Ltd., priority 2022, published 2026)

Molecular target: T1, Human orexin receptor type 2 (Homo sapiens, UniProt O43614)
T1 construct: expressed in transfected cells; host or cells: CHO cells (transient expression, with apoaequorin)
T1 sequence (O43614 1-444): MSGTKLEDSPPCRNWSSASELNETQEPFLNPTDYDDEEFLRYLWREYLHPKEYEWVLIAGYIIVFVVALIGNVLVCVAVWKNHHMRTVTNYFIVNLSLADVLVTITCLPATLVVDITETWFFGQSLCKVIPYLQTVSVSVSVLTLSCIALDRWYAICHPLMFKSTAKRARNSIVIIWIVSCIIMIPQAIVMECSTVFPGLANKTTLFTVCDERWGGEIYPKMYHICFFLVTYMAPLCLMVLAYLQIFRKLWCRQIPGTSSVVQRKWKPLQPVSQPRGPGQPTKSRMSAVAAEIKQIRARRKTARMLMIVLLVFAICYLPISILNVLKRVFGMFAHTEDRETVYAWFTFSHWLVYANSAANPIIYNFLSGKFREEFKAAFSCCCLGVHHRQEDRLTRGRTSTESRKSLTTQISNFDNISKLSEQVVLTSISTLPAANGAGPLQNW
Experiment: Test Example 2: agonist activity for orexin receptor type 2 (aequorin luminescence, intracellular calcium mobilization in CHO cells)
Assay type: cell-based
Conditions: compound 10 μM; relative percentage of luminescence for the luminescence (100%) of Orexin A (100 μM); CHO cells transiently expressing human orexin receptor type 2 and apoaequorin
Description: Test Example 2: Measurement of Agonist Activity for Orexin Receptor Type 2
Human orexin receptor type 2 and apoaequorin were transiently expressed in CHO cells, and the agonist activity was evaluated based on intracellular calcium mobilization with ligand stimulation. The CHO cells transiently-expressed human orexin receptor type 2 and apoaequorin were seeded on a 384-well plate by 2,000 cells/well, and then incubated for 16-22 hours. After the plate was returned to room temperature, Coelenterazine hcp (final concentration: 1 μM) was added to the plate, and the plate was allowed to stand at room temperature for 2 hours. And then, Orexin A (PEPTIDE INSTITUTE, INC., Lot. 711101) or each test compound was added to the plate, and the luminescence of the cells was measured with FDSS7000 (Hamamatsu Photonics K.K.), wherein Orexin A and each test compound were dissolved in DMSO (final concentration: 0.1%), and diluted with a buffer (Hanks, 20 mM HEPES, 0.1% BSA). The agonist activity of each test compound for orexin receptor type 2 was calculated as relative percentage of luminescence for the luminescence (100%) of Orexin A (100 μM).
Each agonist activity of the compounds obtained in Examples (10 μM) for orexin receptor type 2 is shown in the table below as relative percentage of luminescence for the luminescence (100%) of Orexin A (100 μM).

Row | Structure (SMILES) | Agonist Activity (%)
1 | Cc1ccc(N2C[C@H]3CN(C(=O)N[C@@H]4[C@@H](N5CCN(C(C)C)CC5)CCCC4(F)F)C[C@H]3C2)cc1 [Example 23, (3aR,6aS)—N-{(1R,6S)-2,2-difluoro-6-[4-(propan-2-yl)piperazin-1-yl]cyclohexyl}-5-(4-methylphenyl)hexahydropyrrolo[3,4-c]pyrrole-2(1H)-carboxamide] | 404
2 | Cc1cccc([C@@H]2C[C@@H]3CN(C(=O)N[C@@H]4[C@@H](N5CCN(C(C)C)CC5)CCCC4(F)F)C[C@@H]3C2)c1 [Example 24, (3aR,5R,6aS)—N-{(1R,6S)-2,2-difluoro-6-[4-(propan-2-yl)piperazin-1-yl]cyclohexyl}-5-(3-methylphenyl)hexahydropenta[c]pyrrole-2(1H)-carboxamide] | 414
3 | CC(C)N1CCN([C@H]2CCCC(F)(F)[C@@H]2NC(=O)N2C[C@H]3C[C@@H](c4ccccn4)C[C@H]3C2)CC1 [Example 25, (3aR,5R,6aS)—N-{(1R,6S)-2,2-difluoro-6-[4-(propan-2-yl)piperazin-1-yl]cyclohexyl}-5-(pyridin-2-yl)hexahydropenta[c]pyrrole-2(1H)-carboxamide] | 396
4 | CC(C)N1CCN([C@H]2CCCC(F)(F)[C@@H]2NC(=O)N2C[C@H]3C[C@@H](c4ncccn4)C[C@H]3C2)CC1 [Example 26, (3aR,5R,6aS)—N-{(1R,6S)-2,2-difluoro-6-[4-(propan-2-yl)piperazin-1-yl]cyclohexyl}-5-(pyrimidin-2-yl)hexahydropenta[c]pyrrole-2(1H)-carboxamide] | 345
5 | CC(C)N1CC[C@H](O[C@H]2CCCC(F)(F)[C@@H]2NC(=O)N2C[C@H]3CC(c4ccccc4)C[C@H]3C2)C1 (stereo partly drawn) [Example 28, (3aR,5R,6aS)—N-[(1R,6S)-2,2-difluoro-6-{[(3S)-1-(propan-2-yl)pyrrolidin-3-yl]oxy}cyclohexyl]-5-phenylhexahydropenta[c]pyrrole-2(1H)-carboxamide] | 400
6 | CC(C)N1CC[C@H](O[C@H]2CCCC(F)(F)[C@@H]2NC(=O)N2C[C@@H]3CN(c4ccccc4)C[C@@H]3C2)C1 [Example 29, (3aR,6aS)—N-[(1R,6S)-2,2-difluoro-6-{[(3S)-1-(propan-2-yl)pyrrolidin-3-yl]oxy}cyclohexyl]-5-phenylhexahydropyrrolo[3,4-c]pyrrole-2(1H)-carboxamide] | 393

The next lines start with the values.

Row | Agonist Activity (%) | Structure (SMILES)
7 | 374 | Cc1nc([C@@H]2C[C@@H]3CN(C(=O)N[C@@H]4[C@@H](N5CCN(C(C)C)CC5)CCCC4(F)F)C[C@@H]3C2)no1 [Example 30, (3aR,5R,6aS)—N-{(1R,6S)-2,2-difluoro-6-[4-(propan-2-yl)piperazin-1-yl]cyclohexyl}-5-(5-methyl-1,2,4-oxadiazol-3-yl)hexahydropenta[c]pyrrole-2(1H)-carboxamide]
8 | 252 | Cc1nc(C2C[C@@H]3CN(C(=O)N[C@@H]4[C@@H](N(C)[C@H]5CCN(C(C)C)C5)CCCC4(F)F)C[C@@H]3C2)no1 (stereo partly drawn) [Example 31, (3aR,5R,6aS)—N-[(1R,6S)-2,2-difluoro-6-{methyl[(3S)-1-(propan-2-yl)pyrrolidin-3-yl]amino}cyclohexyl]-5-(5-methyl-1,2,4-oxadiazol-3-yl)hexahydropenta[c]pyrrole-2(1H)-carboxamide]
9 | 345 | Cc1nc(C2C[C@H]3CC(C(=O)N[C@@H]4[C@@H](O[C@H]5CCN(C(C)C)C5)CCCC4(F)F)C[C@H]3C2)no1 (stereo partly drawn) [Example 32, (3aR,5R,6aS)—N-[(1R,6S)-2,2-difluoro-6-{[(3S)-1-(propan-2-yl)pyrrolidin-3-yl]oxy}cyclohexyl]-5-(5-methyl-1,2,4-oxadiazol-3-yl)hexahydropenta[c]pyrrole-2(1H)-carboxamide]
